The values that follow come from US20250185657A1, “PEST CONTROLLING AGENT” (priority 2022, published 2025).

Holding throughout (assay type): in vivo
Assay [1] concerns Tobacco Cutworm (Spodoptera litura). The experiment in a line: Tobacco cutworm control test (leaf piece dipping treatment). Particulars: 120 h, cabbage leaf piece dipped, second instar larvae, five days after the treatment, 25° C., read-out: insect mortality rate. The protocol: (§1) The insect mortality rate and the feeding damage prevention effect shown in the Biological Test Examples were calculated based on the following expression.
Biological Test Example 5: Tobacco Cutworm (Spodoptera litura) Control Test (Leaf Piece Dipping Treatment)
A cabbage leaf was cut into a piece having a diameter of 5.0 cm, and this cabbage leaf piece was immersed in 20 mL of a diluted solution of the test compound diluted to 200 ppm, and air-dried. After air-drying, the cabbage leaf piece was placed in a plastic cup, 5 second instar tobacco cutworm larvae were released thereinto, the cup was covered with a lid, and the larvae were reared in a constant temperature chamber at 25° C.

The subject of assay [2] is Cotton Aphid (Aphis gossypii). The experiment in a line: Cotton aphid control test (leaf piece application treatment). Particulars: 120 h, sprayed on cucumber leaf piece, nymphs, five days after the treatment, 25° C., read-out: insect mortality rate. The protocol: as §1
Biological Test Example 1: Cotton Aphid (Aphis gossypii) Control Test (Leaf Piece Application Treatment)
A cucumber leaf was cut into a piece having a diameter of 3.5 cm and placed on absorbent cotton moistened with water. Two adult cotton aphids were released thereon, and allowed to lay nymphs for 24 hours, and then the adults were removed. 2 mL of a diluted solution of the test compound diluted to 200 ppm was applied onto the resulting cucumber leaf by using an spray tower. The cucumber leaf was air-dried and then placed in a plastic cup together with the absorbent cotton, the cup was covered with a lid, and the nymphs were reared in a constant temperature chamber at 25° C.

Assay [3] deals with Diamondback Moth (Plutella xylostella). The experiment in a line: Diamondback moth control test (leaf piece dipping treatment). Particulars: 120 h, cabbage leaf piece dipped, third instar, five days after the treatment, 25° C., read-out: insect mortality rate. The protocol:
as §1
Biological Test Example 3: Diamondback Moth (Plutella xylostella) Control Test (Leaf Piece Dipping Treatment)
A cabbage leaf was cut into a piece having a diameter of 5.0 cm, and this cabbage leaf piece was immersed in 20 mL of a diluted solution of the test compound diluted to 200 ppm, and air-dried. After air-drying, the cabbage leaf piece was placed in a plastic cup, 10 third instar diamondback moth nymphs were released thereinto, the cup was covered with a lid, and the nymphs were reared in a constant temperature chamber at 25° C.

Turning to `CCS(=O)(=O)c1cc(-c2ccc(F)cc2)cnc1-c1noc(=O)n1-c1ccc(C(F)(F)F)cn1` [Compound 2, 3-(3-(ethylsulfonyl)-5-(4-fluorophenyl)pyridin-2-yl)-4-(5-(trifluoromethyl)pyridin-2-yl)-1,2,4-oxadiazol-5(4H)-one], the mortality at 200 ppm in assay [1], in assay [2] and in assay [3] was at least 80% in each case.
As for `CCS(=O)(=O)c1cc(-c2ccc(OC(F)(F)F)cc2)cnc1-c1noc(=O)n1-c1ccc(C(F)(F)F)cn1` [Compound 4, 3-(3-(ethylsulfonyl)-5-(4-(trifluoromethoxy)phenyl)pyridin-2-yl)-4-(5-(trifluoromethyl)pyridin-2-yl)-1,2,4-oxadiazol-5(4H)-one], the mortality at 200 ppm in assay [1], in assay [2] and in assay [3] was at least 80% in each case.
On to `CCS(=O)(=O)c1cc(-c2ccc(F)cc2)cnc1-c1noc(=S)n1-c1ccc(C(F)(F)F)cn1` [Compound 18, 3-(3-(ethylsulfonyl)-5-(4-fluorophenyl)pyridin-2-yl)-4-(5-(trifluoromethyl)pyridin-2-yl)-1,2,4-oxadiazol-5(4H)-thione], for which the mortality at 200 ppm in assay [1], in assay [2] and in assay [3] was at least 80% throughout.
Take `CCS(=O)(=O)c1cc(-c2ccc(F)cc2)cnc1C1=NOCN1c1ccc(C(F)(F)F)cn1` [Compound 27, 3-(3-(ethylsulfonyl)-5-(4-fluorophenyl)pyridin-2-yl)-4-(5-(trifluoromethyl)pyridin-2-yl)-4,5-dihydro-1,2,4-oxadiazole]: the mortality at 200 ppm in assay [1] and in assay [3] was at least 80% in each case.
As to `CCS(=O)(=O)c1cc(-c2ccc(F)cc2)cnc1C1=NOCCN1c1ccc(C(F)(F)F)cn1` [Compound 29, 3-(3-(ethylsulfonyl)-5-(4-fluorophenyl)pyridin-2-yl)-4-(5-(trifluoromethyl)pyridin-2-yl)-5,6-dihydro-4H-1,2,4-oxadiazine], the mortality at 200 ppm in assay [1], in assay [2] and in assay [3] was at least 80% throughout.
Take `CCS(=O)(=O)c1cc(-c2ccc(F)cc2)cnc1C1=NC(=COC)C(=O)N1c1ccc(C(F)(F)F)cn1` [Compound 34]: the mortality at 200 ppm in assay [3] is at least 80%.
`CN(C)S(=O)(=O)c1cc(-c2ccc(OC(F)(F)F)cc2)cnc1-c1noc(=O)n1-c1ccc(C(F)(F)F)cn1` [Compound 195, N,N-dimethyl-2-(5-oxo-4-(5-(trifluoromethyl)pyridin-2-yl)-4,5-dihydro-1,2,4-oxadiazol-3-yl)-5-(4-(trifluoromethoxy)phenyl)pyridine-3-sulfonamide]: the mortality at 200 ppm in assay [1] and in assay [3] was at least 80% throughout.

For orientation: mortality means the percentage killed.
